Earlier results on 4 compounds are cited in patent US20220257490A1, “METHOD FOR DYEING KERATINOUS MATERIAL, COMPRISING THE USE OF AN ORGANOSILICON COMPOUND, A COLORED EFFECT PIGMENT AND A FILM-FORMING POLYMER IV” (Henkel AG & Co. KGaA, priority 2019, published 2022).

Molecules are shown by their SMILES.

For this data set the following is noted: 25° C.

Consider `O=S(=O)([O-])c1ccc(N=Nc2c(O)ccc3ccccc23)cc1.[Na+]` [Acid Orange 7, sodium salt of 4-[(2-hydroxy-1-naphthyl)azo]benzene sulphonate], for which the solubility in water result is on record as “more than 7 g/L”.
On to `Nc1cc(S(=O)(=O)[O-])cc2cc(S(=O)(=O)[O-])c(N=Nc3ccccc3)c(O)c12.[Na+].[Na+]` [Acid Red 33, disodium salt of 5-amino-4-hydroxy-3-(phenylazo)-naphthalene-2,7-disulphonate], for which the solubility in water is 2500 µg/mL.
`O=C([O-])c1c(Cl)c(Cl)c(Cl)c(Cl)c1-c1c2c(Br)cc(=O)c(Br)c-2oc2c(Br)c(O)cc(Br)c12.O=C([O-])c1c(Cl)c(Cl)c(Cl)c(Cl)c1-c1c2c(Br)cc(=O)c(Br)c-2oc2c(Br)c(O)cc(Br)c12.[Na+].[Na+]` [Acid Red 92, disodium salt of 3,4,5,6-tetrachloro-2-(1,4,5,8-tetrabromo-6-hydroxy-3-oxoxanthen-9-yl)benzoic acid]: the solubility in water result was “greater than 10 g/L”.
On to `O=C([O-])C1=NN(c2ccc(S(=O)(=O)[O-])cc2)C(=O)C1N=Nc1ccc(S(=O)(=O)[O-])cc1.[Na+].[Na+].[Na+]` (stereo not shown) [Acid Yellow 23, trisodium salt of 4,5-dihydro-5-oxo-1-(4-sulfophenyl)-4-((4-sulfophenyl)azo)-1H-pyrazole-3-carboxylic acid], for which the “solubility in water (in words)” value is “highly soluble in water”.
